The values below come from patent US10005767B2, “Compositions and methods for inhibition of the JAK pathway” (Rigel Pharmaceuticals, Inc., priority 2009, dated 2018).

The structures appear in SMILES notation. Where a name gives a salt, the structure may show the parent alone. Read-outs that look alike come from different tables or passages of the source.

This experiment relates to human primary T-cells, IL-2 stimulated proliferation (JAK-1 and JAK-3 dependent; reported as JAK3 activity). Description: Human primary T-cell proliferation stimulated by IL-2 (Example 3). Conditions: tested under conditions described in Example 3 (IL-2 stimulated human primary T-cell proliferation), read-out: ability to inhibit JAK3 activity, IC50 range (Table V). The format is cell-based. In short, it runs like this:
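Peripheral-blood human T-cells pre-activated via TCR/CD28, IL-2-starved overnight, then cultured 72 h at 37 °C with compound in Yssel's medium containing IL-2 (80 U/mL in cell suspension). Proliferation read as viable-cell ATP by CellTiter-Glo luminescence; reduction versus control taken as JAK pathway inhibition.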

What is called IC50 is the midpoint of a concentration-inhibition curve. With `Cc1cnc(Nc2ccc(C(=O)NC3CCC3)cc2)nc1Nc1ccc2oc(=O)n(COP(=O)(O)O)c2c1` [Compound I-150, (5-(2-(4-(cyclobutylcarbamoyl)phenylamino)-5-methylpyrimidin-4-ylamino)-2-oxobenzo[d]oxazol-3(2H)-yl)methyl dihydrogen phosphate], for the setting “Homo sapiens, T-cell”, the IC50 was below 500 nM.

For `Cc1cnc(Nc2cccc(S(=O)(=O)NC(C)(C)C)c2)nc1Nc1ccc2oc(=O)[nH]c2c1` [Compound I-25, N4-(benzo[d]oxazol-2(3H)-on-5-yl)-N2-((3-tert-butylaminosulfonyl)phenyl)-5-methylpyrimidine-2,4-diamine], the IC50 is below 500 nM.

As to `Cc1cnc(Nc2ccc(C(C)C)cc2)nc1Nc1ccc2oc(=O)[nH]c2c1` [Compound I-419, 5-(2-(4-isopropylphenylamino)-5-methylpyrimidin-4-ylamino)benzo[d]oxazol-2(3H)-one], the IC50 (Homo sapiens, T-cell) was below 500 nM.

Take `Cn1c(=O)n(C)c2cc(Nc3nc(Nc4ccc(NS(C)(=O)=O)cc4)ncc3F)ccc21` [Compound I-43, N4-(1,3-dimethylbenzimidazolin-2-on-5-yl)-N2-((4-methylsulfonylamino)phenyl)-5-fluoropyrimidine-2,4-diamine]: the concentration for half-maximal inhibition (IC50) fell in the range of 500 to 5000 nM.

On to `CCCn1c(=O)oc2ccc(Nc3nc(Nc4cccc(S(C)(=O)=O)c4)ncc3C)cc21` [Compound I-7, N4-(3-n-propylbenzo[d]oxazol-2(3H)-on-5-yl)-N2-((3-methylsulfonyl)phenyl)-5-methylpyrimidine-2,4-diamine], for which the IC50 is below 500 nM.

On to `COc1cc(Nc2ncc(C)c(Nc3ccc4oc(=O)[nH]c4c3)n2)c(F)cc1F` [Compound I-193, 5-[2-(2,4-Difluoro-5-methoxy-phenylamino)-5-methyl-pyrimidin-4-ylamino]-3H-benzooxazol-2-one], for which the IC50 (Homo sapiens, T-cell) lay within 500 to 5000 nM.

With `Cc1cnc(Nc2ccc(C(=O)O)c(C(F)(F)F)c2)nc1Nc1ccc2oc(=O)[nH]c2c1` [Compound I-222, 4-(5-methyl-4-(2-oxo-2,3-dihydrobenzo[d]oxazol-5-ylamino)pyrimidin-2-ylamino)-2-(trifluoromethyl)benzoic acid], where the note is “Homo sapiens, T-cell”, the IC50 lay in the range of 500 to 5000 nM.

For the molecule `Cc1cnc(Nc2cc(C(C)N3CCCC3)cc(C(F)(F)F)c2)nc1Nc1ccc2oc(=O)[nH]c2c1` (stereo not shown) [Compound I-463, 5-(5-methyl-2-(3-(1-(pyrrolidin-1-yl)ethyl)-5-(trifluoromethyl)phenylamino)pyrimidin-4-ylamino)benzo[d]oxazol-2(3H)-one], the half-inhibitory concentration (IC50) (Homo sapiens, T-cell) was below 500 nM.

With `Cc1cnc(Nc2ccc(N3CCN(C(=O)OC(C)(C)C)CC3)nc2)nc1Nc1ccc2oc(=O)[nH]c2c1` [II-5, N4-(benzo[d]oxazol-2(3H)-on-5-yl)-N2-(6-(4-tert-butyloxycarbonylpiperazin-1-yl)pyridin-3-yl)-5-methylpyrimidine-2,4-diamine], the IC50 (Homo sapiens, T-cell) was below 500 nM.

Turning to `Cc1cnc(Nc2ccc(OC(F)(F)F)c(N3CCOCC3)c2)nc1Nc1ccc2oc(=O)[nH]c2c1` [Compound I-124, N4-(benzo[d]oxazolin-2(3H)-one-5-yl)-5-methyl-N2-[3-(morpholin-4-yl)-4-trifluoromethoxyphenyl]-2,4-pyrimidinediamine], the IC50 (Homo sapiens, T-cell) was below 500 nM.

Take `Cc1cnc(Nc2ccc(O)c(Cl)c2)nc1Nc1ccc2oc(=O)[nH]c2c1` [Compound I-424, 5-[2-(3-Chloro-4-hydroxy-phenylamino)-5-methyl-pyrimidin-4-ylamino]-3H-benzooxazol-2-one]: the IC50 (Homo sapiens, T-cell) is below 500 nM.

As to `COc1cc(Nc2ncc(C)c(Nc3cc(F)c4oc(=O)[nH]c4c3)n2)cc(C(F)(F)F)c1` [Compound I-251, 7-fluoro-5-(2-(3-methoxy-5-(trifluoromethyl)phenylamino)-5-methylpyrimidin-4-ylamino)benzo[d]oxazol-2(3H)-one], where the note is “Homo sapiens, T-cell”, the 50% inhibitory concentration (IC50) was below 500 nM.

For the molecule `Cc1cnc(Nc2ccc(OC(F)(F)F)cc2)nc1Nc1ccc2oc(=O)[nH]c2c1` [Compound I-108, N4-(benzoxazolin-2-on-5-yl)-N2-(4-trifluoromethoxyphenyl)-5-methylpyrimidine-2,4-diamine trifluoroacetate salt], under “Homo sapiens, T-cell”, the IC50 was below 500 nM.

As to `Cc1cnc(Nc2ccc(S(N)(=O)=O)cc2)nc1Nc1ccc2c(c1)n(C)c(=O)n2C` [Compound I-35, N4-(1,3-dimethylbenzimidazolin-2-on-5-yl)-N2-((4-aminosulfonyl)phenyl)-5-methylpyrimidine-2,4-diamine], the IC50 was above 10000 nM.

Turning to `Cc1cc(Nc2ncc(C)c(Nc3ccc4oc(=O)[nH]c4c3)n2)ccc1OC(F)F` [Compound I-387, N2-(4-difluoromethoxy-3-methyl)phenyl-5-methyl-N4-(2-oxo-2,3-dihydro-1,3-benzoxazol-5-yl)-2,4-pyrimidinediamine], the IC50 was below 500 nM.

Consider `CN1CCN(c2ccc(Nc3ncc(F)c(Nc4ccc5c(c4)n(C)c(=O)n5C)n3)cn2)CC1` [II-21, N4-(1,3-dimethylbenzimidazolin-2-on-5-yl)-N2-[2-(4-methylpiperazino)pyridin-5-yl]-5-fluoropyrimidine-2,4-diamine], for which the IC50 was 500 to 5000 nM.

For `N#Cc1ccc(Nc2ncc(F)c(Nc3ccc4oc(=O)[nH]c4c3)n2)cc1` [Compound I-45, N4-(benzo[d]oxazol-2(3H)-on-5-yl)-N2-(4-cyanophenyl)-5-fluoropyrimidine-2,4-diamine], the IC50 (Homo sapiens, T-cell) was below 500 nM.

In the case of `COc1cc(Nc2ncc(C)c(Nc3ccc4oc(=O)[nH]c4c3)n2)cc(C(C)NC2CC2)c1` (stereo not shown) [Compound I-233, 5-(2-(3-(1-(cyclopropylamino)ethyl)-5-methoxyphenylamino)-5-methylpyrimidin-4-ylamino)benzo[d]oxazol-2(3H)-one], the IC50 (Homo sapiens, T-cell) was below 500 nM.

Consider `Cc1cnc(Nc2ccc3c(c2)C(=O)N(C)C/C=C\C3)nc1Nc1ccc2oc(=O)[nH]c2c1` [IV-10, (Z)-2-Methyl-9-[5-methyl-4-(2-oxo-2,3-dihydro-benzooxazol-5-ylamino)-pyrimidin-2-ylamino]-3,6-dihydro-2H-benzo[c]azocin-1-one], for which the IC50 (Homo sapiens, T-cell) was below 500 nM.

Turning to `COc1ccc(Nc2ncc(C)c(Nc3ccc4oc(=O)[nH]c4c3)n2)cc1C(=O)N(C)C` [Compound I-260, 2-methoxy-N,N-dimethyl-5-(5-methyl-4-(2-oxo-2,3-dihydrobenzo[d]oxazol-5-ylamino)pyrimidin-2-ylamino)benzamide], the IC50 (Homo sapiens, T-cell) was below 500 nM.

Turning to `Cc1cc(F)cc(Nc2ncc(C)c(Nc3ccc4oc(=O)[nH]c4c3)n2)c1` [Compound I-199, 5-[2-(3-Fluoro-5-methyl-phenylamino)-5-methyl-pyrimidin-4-ylamino]-3H-benzooxazol-2-one], the 50% inhibitory concentration (IC50) (Homo sapiens, T-cell) is below 500 nM.

As to `Cc1cnc(Nc2ccc(N3CCC(F)(F)CC3)cc2)nc1Nc1ccc2oc(=O)[nH]c2c1` [Compound I-279, N2-[4-(4,4-difluoropiperidinyl)]phenyl-5-methyl-N4-(2-oxo-2,3-dihydro-1,3-benzoxazol-5-yl)-2,4-pyrimidinediamine], the half-inhibitory concentration (IC50) was below 500 nM.

Regarding `Cc1cnc(Nc2ccc(Cl)c(N3CC(C)N(C)C(C)C3)c2)nc1Nc1ccc2oc(=O)[nH]c2c1` (stereo not shown) [Compound I-284, N2-[4-chloro-3-(3,4,5-trimethylpiperazino)]phenyl-5-methyl-N4-(2-oxo-2,3-dihydro-1,3-benzoxazol-5-yl)-2,4-pyrimidinediamine], the IC50 is below 500 nM.

As for `Cc1cnc(Nc2ccc(N(C)[C@@H]3CCCNC3)nc2)nc1Nc1ccc2oc(=O)[nH]c2c1` [II-108, (R)-5-(5-methyl-2-(6-(methyl(piperidin-3-yl)amino)pyridin-3-ylamino)pyrimidin-4-ylamino)benzo[d]oxazol-2(3H)-one], the IC50 (Homo sapiens, T-cell) is below 500 nM.

With `Cn1c(=O)oc2ccc(Nc3nc(Nc4cccc(S(C)(=O)=O)c4)ncc3F)cc21` [Compound I-77, N2-((3-methylsulfonyl)phenyl)-N4-(3-methyl-2-oxo-2,3-dihydrobenzo[d]oxazol-5-yl)-5-fluoropyrimidine-2,4-diamine], the IC50 was 500 to 5000 nM.

`COc1c(C)cc(Nc2ncc(C)c(Nc3ccc4oc(=O)[nH]c4c3)n2)cc1Cl` [Compound I-265, 5-(2-(3-chloro-4-methoxy-5-methylphenylamino)-5-methylpyrimidin-4-ylamino)benzo[d]oxazol-2(3H)-one]: where the note is “Homo sapiens, T-cell”, the IC50 was below 500 nM.

In the case of `CCCn1c(=O)oc2ccc(Nc3nc(Nc4ccc(NS(C)(=O)=O)cc4)ncc3C)cc21` [Compound I-8, N4-(3-n-propylbenzo[d]oxazol-2(3H)-on-5-yl)-N2-((4-methylsulfonylamino)phenyl)-5-methylpyrimidine-2,4-diamine], the IC50 is below 500 nM.

Regarding `CC(=O)N(C)c1ccc(Nc2ncc(C)c(Nc3ccc4oc(=O)[nH]c4c3)n2)cc1` [Compound I-309, N2-[4-(N-acetyl-N-methyl)amino]phenyl-5-methyl-N4-(2-oxo-2,3-dihydro-1,3-benzoxazol-5-yl)-2,4-pyrimidinediamine], the IC50 is below 500 nM.

Regarding `Cc1cnc(Nc2cnc(N3CC4CC3CN4C(=O)OC(C)(C)C)c(F)c2)nc1Nc1ccc2oc(=O)[nH]c2c1` (stereo not shown) [II-49, 5-{3-Fluoro-5-[5-methyl-4-(2-oxo-2,3-dihydro-benzooxazol-5-ylamino)-pyrimidin-2-ylamino]-pyridin-2-yl}-2,5-diaza-bicyclo[2.2.1]heptane-2-carboxylic acid tert-butyl ester], the IC50 (Homo sapiens, T-cell) was below 500 nM.

For the molecule `Cc1cnc(Nc2cccc(OC(F)F)c2)nc1Nc1ccc2oc(=O)[nH]c2c1` [Compound I-312, N2-(3-difluoromethoxy)phenyl-5-methyl-N4-(2-oxo-2,3-dihydro-1,3-benzoxazol-5-yl)-2,4-pyrimidinediamine], the 50% inhibitory concentration (IC50) was below 500 nM.

As to `COc1cc(Nc2ncc(C)c(Nc3ccc4oc(=O)[nH]c4c3)n2)ccc1C(=O)N1CCCC1` [Compound I-268, 5-(2-(3-methoxy-4-(pyrrolidine-1-carbonyl)phenylamino)-5-methylpyrimidin-4-ylamino)benzo[d]oxazol-2(3H)-one], where the note is “Homo sapiens, T-cell”, the IC50 was below 500 nM.
